Test results from patent US6432943B1, “Method for treating sexual dysfunction” (Eli Lilly and Company, priority 1997, dated 2002).

What was measured:
[1] = test system: muscarinic cholinergic receptor; settings: results of pharmacological studies
[2] = test system: clinical subjects; assay: clinical observation of pupil response; settings: pupilary dialation was expected
[3] = test system: rats; assay: in vivo animal observation after overdose; design: species or system rat
[4] = detection of radiolabelled compound in saliva; format: in vivo
Experimental: For example, in the treatment of adult humans, dosages of from about 0.25 to 50 mg, preferably from 1 to 30 mg, and most preferably 1 to 20 mg per day may be used. A once a day dosage is normally sufficient, although divided doses may be administered. For treatment of cognitive dysfunction, a dose range of from 1 to 30 mg, preferably 1 to 20 mg per day is suitable.

SMILES | muscarinic cholinergic receptor activity [1] | pupil response in clinical subjects [2] | observation in rats exposed to an overdose [3] | detection in saliva [4]
Cc1cc2c(s1)Nc1ccccc1N=C2N1CCN(C)CC1 | has muscarinic cholinergic receptor activity | pupilary constriction | significant salivation | –
Cc1cc2c(s1)Nc1ccccc1N=C2N1CCN(C)CC1 [2-methyl-4-(4-methyl-1-piperazinyl)-10H-thieno-[2,3-b][1,5]benzodiazepine] | – | – | – | can be detected in the saliva
